Measured values published in patent US20040266002A1, “Use of abscisic acid in somatic embryogenesis of pine trees” (Weyerhaeuser Company, priority 2003, published 2004).
Marks after values point to notes of the source that are not given here.

Tested on: Loblolly pine (Pinus taeda) pre-cotyledonary somatic embryos
Experiment: Abscisic acid pulse during development of Loblolly pine somatic embryos
Type: cell-based
Experimental: Development: Pre-cotyledonary somatic embryos were transferred from maintenance medium into solid development medium BM3 containing 25 mg/L abscisic acid for four weeks to yield treated pre-cotyledonary somatic embryos. The development medium either lacks growth hormones entirely, or has them present only at very low levels. The further inclusion of an adsorbent composition in this medium is advantageous. The adsorbent composition is normally present at a concentration of about 0.1-5 g/L, more generally about 0.25-2.5 g/L. Gelrite was included at a concentration of about 0.25%.
After culturing pre-cotyledonary embryos on solid development medium containing 25 mg/L abscisic acid for 4 weeks, the abscisic acid-treated pre-cotyledonary embryos were transferred on a filter paper support to solid development medium without abscisic acid. The solid development medium without abscisic acid had the same composition as development medium BM3. Development is preferably carried out in complete darkness at a temperature of 22°-25 C until elongated cotyledonary embryos have developed. Development time is typically several weeks, such as 10 to 12 weeks.
Female gametophytes containing zygotic embryos were removed from seeds of genotypes A, B and C, as described in EXAMPLE 1, above. The induction and maintenance stages were as described in EXAMPLE 1.
To test the effect of a pulse of abscisic acid, pre-cotyledonary embryos were transferred to a filter paper support placed on solid development medium BM3 containing abscisic acid. Six different treatments were tested. The concentration of abscisic acid, and the time period during which the pre-cotyledonary embryos were exposed to the abscisic acid during each treatment, are shown in Table 3.
As a control, pre-cotyledonary embryos were maintained in development medium BM3 containing 25 mg/L abscisic acid for twelve weeks. After twelve weeks, both control and experimental embryos were taken through the standard post-development treatments as described in EXAMPLE 1. Germination was assessed after twelve weeks on germination media in the light at room temperature.

CC1=CC(=O)CC(C)(C)[C@@]1(O)/C=C/C(C)=C\C(=O)O [Abscisic Acid, abscisic acid]
Mean Dry Weight (All genotypes combined, Control: 25 mg/L abscisic acid weeks 1-12): 0.37 mg/emb
Mean Dry Weight (All genotypes combined, Treatment 1: 25 mg/L weeks 1-3, 0 weeks 4-12): 0.49* mg/emb
Mean Dry Weight (All genotypes combined, Treatment 2: 25 mg/L weeks 1-5, 0 weeks 6-12): 0.47* mg/emb
Mean Dry Weight (All genotypes combined, Treatment 3: 25 mg/L weeks 1-7, 0 weeks 8-12): 0.47* mg/emb
Mean Dry Weight (All genotypes combined, Treatment 4: 25 mg/L weeks 1-9, 0 weeks 10-12): 0.48* mg/emb
Mean Dry Weight (All genotypes combined, Treatment 5: 25 mg/L weeks 1-3, 15 weeks 4-5, 10 weeks 6-7, 5 weeks 8-9, 0 weeks 10-12): 0.50* mg/emb
Mean Dry Weight (All genotypes combined, Treatment 6: 25 mg/L weeks 1-5, 15 weeks 6-7, 10 weeks 8-9, 0 weeks 10-12): 0.48* mg/emb
Embryo morphology at the end of development (both control (continuous abscisic acid) and experimental (pulse) embryos): good morphological form, good cotyledon development, and normal color
Mean Dry Weight (genotype A, Control: 25 mg/L abscisic acid weeks 1-12): 0.27 mg/emb
Mean Dry Weight (genotype A, Treatment 1: 25 mg/L weeks 1-3, 0 weeks 4-12): 0.38* mg/emb
Mean Dry Weight (genotype A, Treatment 2: 25 mg/L weeks 1-5, 0 weeks 6-12): 0.36* mg/emb
Mean Dry Weight (genotype A, Treatment 3: 25 mg/L weeks 1-7, 0 weeks 8-12): 0.34 mg/emb
Mean Dry Weight (genotype A, Treatment 4: 25 mg/L weeks 1-9, 0 weeks 10-12): 0.32 mg/emb
Mean Dry Weight (genotype A, Treatment 5: 25 mg/L weeks 1-3, 15 weeks 4-5, 10 weeks 6-7, 5 weeks 8-9, 0 weeks 10-12): 0.36* mg/emb
Mean Dry Weight (genotype A, Treatment 6: 25 mg/L weeks 1-5, 15 weeks 6-7, 10 weeks 8-9, 0 weeks 10-12): 0.33 mg/emb
Mean Dry Weight (genotype B, Control: 25 mg/L abscisic acid weeks 1-12): 0.31 mg/emb
Mean Dry Weight (genotype B, Treatment 1: 25 mg/L weeks 1-3, 0 weeks 4-12): 0.32 mg/emb
Mean Dry Weight (genotype B, Treatment 2: 25 mg/L weeks 1-5, 0 weeks 6-12): 0.31 mg/emb
Mean Dry Weight (genotype B, Treatment 3: 25 mg/L weeks 1-7, 0 weeks 8-12): 0.37 mg/emb
Mean Dry Weight (genotype B, Treatment 4: 25 mg/L weeks 1-9, 0 weeks 10-12): 0.37 mg/emb
Mean Dry Weight (genotype B, Treatment 5: 25 mg/L weeks 1-3, 15 weeks 4-5, 10 weeks 6-7, 5 weeks 8-9, 0 weeks 10-12): 0.36 mg/emb
Mean Dry Weight (genotype B, Treatment 6: 25 mg/L weeks 1-5, 15 weeks 6-7, 10 weeks 8-9, 0 weeks 10-12): 0.36 mg/emb
Mean Dry Weight (genotype C, Control: 25 mg/L abscisic acid weeks 1-12): 0.55 mg/emb
Mean Dry Weight (genotype C, Treatment 1: 25 mg/L weeks 1-3, 0 weeks 4-12): 0.79* mg/emb
Mean Dry Weight (genotype C, Treatment 2: 25 mg/L weeks 1-5, 0 weeks 6-12): 0.80* mg/emb
Mean Dry Weight (genotype C, Treatment 3: 25 mg/L weeks 1-7, 0 weeks 8-12): 0.69 mg/emb
Mean Dry Weight (genotype C, Treatment 4: 25 mg/L weeks 1-9, 0 weeks 10-12): 0.76* mg/emb
Mean Dry Weight (genotype C, Treatment 5: 25 mg/L weeks 1-3, 15 weeks 4-5, 10 weeks 6-7, 5 weeks 8-9, 0 weeks 10-12): 0.90* mg/emb
Mean Dry Weight (genotype C, Treatment 6: 25 mg/L weeks 1-5, 15 weeks 6-7, 10 weeks 8-9, 0 weeks 10-12): 0.84* mg/emb
Dry weight of embryos receiving the abscisic acid pulse versus control embryos (pulse treatments versus control with 25 mg/L abscisic acid for twelve weeks): higher dry weight than the control embryos
